The values that follow are results of earlier work, collected in US9012171B2, “Systems and methods for measuring translation activity in viable cells” (Anima Cell Metrology, Inc., priority 2007, dated 2015).

This series relates to premature termination codons (PTC). The following applies: genetic disorders with premature termination codons in the coding sequence of a critical protein.

Molecules are shown by their SMILES.

For the compound `O=C(O)c1cccc(-c2noc(-c3ccccc3F)n2)c1` [PTC124], the “required protein produced, relative to normal concentrations” value is reported as 1-5%.
